The results in this text go back to patent USRE47689E1, “Compounds for treating spinal muscular atrophy” (PTC Therapeutics, Inc., priority 2011, dated 2019).

For data set [1], the system named is SMN2 minigene (full length SMN2 minigene mRNA containing SMN2 exon 7). The experiment in a line: SMN2 minigene mRNA splicing RT-qPCR assay in cultured cells. Format: cell-based, human. The following applies: Homo sapiens, HEK293-H, read-out: EC1.5x for production of full length SMN2 mRNA. A digest of the protocol: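 Full-length SMN2 minigene mRNA (exon 7 included), minigene-specific and not endogenous SMN, quantified by RT-qPCR multiplexed with GAPDH in stably transfected HEK293H cells after 24 h compound exposure at 37° C. Abundance from efficiency-corrected Ct, normalized to GAPDH and vehicle; EC1.5x reported as star bins.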
A general note: Quantitative PCR measures a nucleic acid by following its amplification.

Data set [2] has as its system Smn protein. The experiment in a line: Smn protein assay in cultured cells (SMN HTRF). The following applies: for EC1.5x (concentration giving 1.5-fold Smn protein increase): read-out: EC1.5x for Smn protein expression. The format is cell-based, human. A digest of the protocol:
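Smn in SMA fibroblast lysates, measured by anti-SMN HTRF after 48 h compound exposure; EC1.5x from fold change over vehicle.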
In general terms: In TR-FRET formats the signal depends on donor and acceptor labels being close together.

Where [3] appears, read: HEK293H cells stably transfected with SMN2-A minigene, 24 hours, 7-point concentration curve, 1.5-fold relative to vehicle-treated cells.
Setting [4] is: SMA patient fibroblast cells, 48 hours, 7-point concentration data, fold increase relative to vehicle control (SMN HTRF).
Where [5] appears, read: SMA Type 1 patient fibroblast cells (GM03813), 48 hours, 7-point concentration curve, SMN HTRF, concentration producing 1.5 times Smn protein vs DMSO vehicle control.

As usually defined, the melting point is the temperature of the solid-liquid transition.

Like-named read-outs stand apart in the source and are kept apart here. Where only a bound is given, the exact number is not on record here.

As to `CCc1cc(C)cn2cc(-c3cc4ccc(N5CCNCC5)cc4oc3=O)nc12` [Compound 334, 3-(8-ethyl-6-methylimidazo[1,2-a]pyridin-2-yl)-7-(piperazin-1-yl)-2H-chromen-2-one], the melting point fell in the range of 198 to 208 °C. Further, in data set [1] (setting [3]), the EC (1.5-fold) fell in the range of 0.1 to 0.3 µM. For the same molecule, in data set [2] (setting [4]), the “maximum fold (Fold) increase of Smn protein” value (“maximum fold (Fold) increase” for short) is on record as “* (maximum fold increase of ≤1.2)”.

As for `CN1CCCN(c2ccc3cc(-c4cn5cccnc5n4)c(=O)oc3c2)CC1` [Compound 118, 3-(imidazo[1,2-a]pyrimidin-2-yl)-7-(4-methyl-1,4-diazepan-1-yl)-2H-chromen-2-one], the melting point is 252 to 254 °C. In addition, the EC (1.5-fold) in data set [1] (setting [3]) is 0.1 to 0.3 µM. For the same molecule, in data set [2] (setting [5]), the EC1.5x (concentration giving 1.5-fold Smn protein increase) is below 300 nM. Besides, in data set [2] (setting [4]), the “maximum fold (Fold) increase” value is given as “***** (fold increase >1.65)”.

`CN(C)c1ccc(-c2cc3ccc(N4CCNCC4)cc3oc2=O)cn1` [Compound 547, 3-[6-(dimethylamino)pyridin-3-yl]-7-(piperazin-1-yl)-2H-chromen-2-one] had a melting point of 179 to 181 °C. Further, in data set [1] (setting [3]), the EC (1.5-fold) was in the range of 3 to 30 µM. The “maximum fold (Fold) increase” value in data set [2] (setting [4]) is reported as “* (maximum fold increase of ≤1.2)”.

`CN(C)Cc1ccc2cc(-c3cn4ccsc4n3)c(=O)oc2c1` [Compound 198, 7-[(dimethylamino)methyl]-3-(imidazo[2,1-b][1,3]thiazol-6-yl)-2H-chromen-2-one] came in with a melting point of 135 to 140 °C. The EC (1.5-fold) in data set [1] (setting [3]) was in the range of 0.3 to 1 µM. Moreover, the EC1.5x (concentration giving 1.5-fold Smn protein increase) in data set [2] (setting [5]) lay in the range of 3000 to 10000 nM. In addition, in data set [2] (setting [4]), the “maximum fold (Fold) increase” value is “**** (fold increase between >1.5 and ≤1.65)”.

For the molecule `Cc1cn2cc(-c3cc4ccc(NC5CNC5)cc4oc3=O)nc2c(C)n1` [Compound 619, 7-(azetidin-3-ylamino)-3-(6,8-dimethylimidazo[1,2-a]pyrazin-2-yl)-2H-chromen-2-one], the melting point fell in the range of 250 to 256 °C. Besides, in data set [1] (setting [3]), the EC (1.5-fold) was below 0.1 µM. Further, the EC1.5x (concentration giving 1.5-fold Smn protein increase) in data set [2] (setting [5]) is below 300 nM. In addition, the “maximum fold (Fold) increase” value in data set [2] (setting [4]) is “**** (fold increase between >1.5 and ≤1.65)”.

On to `O=c1oc2cc(N3CCNCC3)cc(F)c2cc1-c1cn2ccsc2n1` [Compound 311, 5-fluoro-3-(imidazo[2,1-b][1,3]thiazol-6-yl)-7-(piperazin-1-yl)-2H-chromen-2-one], for which the melting point is 278 to 283 °C. In data set [1] (setting [3]), the EC (1.5-fold) was below 0.1 µM. For the same molecule, in data set [2] (setting [5]), the EC1.5x (concentration giving 1.5-fold Smn protein increase) was 1000 to 3000 nM. Also, in data set [2] (setting [4]), the “maximum fold (Fold) increase” value was “*** (fold increase between >1.35 and ≤1.5)”.

As for `Cc1cn2cc(-c3cc4ccc(N5CCCN(C)CC5)cc4oc3=O)nc2cn1` [Compound 493, 7-(4-methyl-1,4-diazepan-1-yl)-3-(6-methylimidazo[1,2-a]pyrazin-2-yl)-2H-chromen-2-one], the melting point was in the range of 234 to 235 °C. Further, in data set [1] (setting [3]), the EC (1.5-fold) was below 0.1 µM. Besides, the EC1.5x (concentration giving 1.5-fold Smn protein increase) in data set [2] (setting [5]) was below 300 nM. Besides, the “maximum fold (Fold) increase” value in data set [2] (setting [4]) is “***** (fold increase >1.65)”.

As to `CN(C)CCN(C)c1ccc2cc(-c3nc4ccccc4s3)c(=O)oc2c1` [Compound 146, 3-(1,3-benzothiazol-2-yl)-7-{[2-(dimethylamino)ethyl](methyl)amino}-2H-chromen-2-one], the melting point lay within 155 to 157 °C. For the same molecule, in data set [1] (setting [3]), the EC (1.5-fold) fell in the range of 0.3 to 1 µM. Also, the “maximum fold (Fold) increase” value in data set [2] (setting [4]) is “* (maximum fold increase of ≤1.2)”.

For the molecule `Cc1cn2cc(-c3cc4ccc(N5CCN[C@@H](C)C5)cc4oc3=O)nc2s1` [Compound 232, 3-(2-methylimidazo[2,1-b][1,3]thiazol-6-yl)-7-[(3S)-3-methylpiperazin-1-yl]-2H-chromen-2-one], the melting point lay in the range of 177 to 182 °C. Besides, the EC (1.5-fold) in data set [1] (setting [3]) was 0.3 to 1 µM. Moreover, in data set [2] (setting [4]), the “maximum fold (Fold) increase” value is listed as “* (maximum fold increase of ≤1.2)”.

The molecule `COc1cccc(-c2cc3ccc(N4CCNCC4)cc3oc2=O)n1` [Cpd 218, 3-(6-methoxypyridin-2-yl)-7-(piperazin-1-yl)-2H-chromen-2-one] came in with a melting point of 162 to 165 °C. In addition, in data set [1] (setting [3]), the EC (1.5-fold) was 0.3 to 1 µM. In addition, the “maximum fold (Fold) increase” value in data set [2] (setting [4]) is “** (fold increase between >1.2 and ≤1.35)”.

`Cc1cn2cc(-c3cc4ccc(C5CCN(CCO)CC5)cc4oc3=O)nc2cn1` [Compound 843, 7-[1-(2-hydroxyethyl)piperidin-4-yl]-3-(6-methylimidazo[1,2-a]pyrazin-2-yl)-2H-chromen-2-one] displayed a melting point of 230 to 236 °C. For the same molecule, the EC (1.5-fold) in data set [1] (setting [3]) was below 0.1 µM. Besides, the EC1.5x (concentration giving 1.5-fold Smn protein increase) in data set [2] (setting [5]) was below 300 nM. The “maximum fold (Fold) increase” value in data set [2] (setting [4]) is “**** (fold increase between >1.5 and ≤1.65)”.

In the case of `Cc1cn2cc(-c3cc4ccc(N5CCN[C@H](C)C5)cc4oc3=O)cc2c(C)n1` [Compound 668, 3-(1,3-dimethylpyrrolo[1,2-a]pyrazin-7-yl)-7-[(3R)-3-methylpiperazin-1-yl]-2H-chromen-2-one], the melting point is 205 to 209 °C. The EC (1.5-fold) in data set [1] (setting [3]) was below 0.1 µM. Moreover, the EC1.5x (concentration giving 1.5-fold Smn protein increase) in data set [2] (setting [5]) was below 300 nM. Moreover, in data set [2] (setting [4]), the “maximum fold (Fold) increase” value is given as “***** (fold increase >1.65)”.

As to `Cc1nc(Cl)cn2cc(-c3cc4ccc(N5CC[C@H](N(C)C)C5)cc4oc3=O)nc12` [Compound 765, 3-(6-chloro-8-methylimidazo[1,2-a]pyrazin-2-yl)-7-[(3S)-3-(dimethylamino)pyrrolidin-1-yl]-2H-chromen-2-one], the melting point lay in the range of 210 to 215 °C. For the same molecule, the EC (1.5-fold) in data set [1] (setting [3]) is 0.3 to 1 µM. Moreover, the “maximum fold (Fold) increase” value in data set [2] (setting [4]) is given as “* (maximum fold increase of ≤1.2)”.

`Cc1cn2cc(-c3cc4ccc(C5=CCN(C(C)C)CC5)cc4oc3=O)nc2c(C)n1` [Compound 802, 3-(6,8-dimethylimidazo[1,2-a]pyrazin-2-yl)-7-[1-(propan-2-yl)-1,2,3,6-tetrahydropyridin-4-yl]-2H-chromen-2-one]: the melting point was in the range of 207 to 217 °C. The EC (1.5-fold) in data set [1] (24 h) is below 0.1 µM. Also, in data set [2], the “maximum fold (Fold) increase” value is “**** (key: *: maximum fold increase of ≤1.2; **: fold increase between >1.2 and ≤1.35; ***: fold increase between >1.35 and ≤1.5; ****: fold increase between >1.5 and ≤1.65; *****: fold increase >1.65)”; the EC1.5x (concentration giving 1.5-fold Smn protein increase) was below 300 nM.

Take `CN1CCCN(c2ccc3cc(-c4cn5cccc(F)c5n4)c(=O)oc3c2)CC1` [Compound 295, 3-(8-fluoroimidazo[1,2-a]pyridin-2-yl)-7-(4-methyl-1,4-diazepan-1-yl)-2H-chromen-2-one]: the melting point lay within 174 to 176 °C. Besides, the EC (1.5-fold) in data set [1] (setting [3]) is below 0.1 µM. Besides, the EC1.5x (concentration giving 1.5-fold Smn protein increase) in data set [2] (setting [5]) lay in the range of 300 to 1000 nM. In addition, the “maximum fold (Fold) increase” value in data set [2] (setting [4]) was “**** (fold increase between >1.5 and ≤1.65)”.

On to `Cc1cn2cc(-c3cc4ccc(C5CCN(C6CCC6)CC5)cc4oc3=O)nc2c(C)n1` [Compound 821, 7-(1-cyclobutylpiperidin-4-yl)-3-(6,8-dimethylimidazo[1,2-a]pyrazin-2-yl)-2H-chromen-2-one], for which the melting point lay in the range of 200 to 205 °C. Besides, the EC (1.5-fold) in data set [1] (setting [3]) was below 0.1 µM. In addition, the EC1.5x (concentration giving 1.5-fold Smn protein increase) in data set [2] (setting [5]) is below 300 nM. Moreover, the “maximum fold (Fold) increase” value in data set [2] (setting [4]) was “***** (fold increase >1.65)”.

In the case of `Cc1cn2cc(-c3cc4ccc(N5CCN6CCC[C@@H]6C5)cc4oc3=O)cc2c(C)n1` [Compound 669, 3-(1,3-dimethylpyrrolo[1,2-a]pyrazin-7-yl)-7-[(8aR)-hexahydropyrrolo[1,2-a]pyrazin-2(1H)-yl]-2H-chromen-2-one], the melting point is 170 to 173 °C. The EC (1.5-fold) in data set [1] (setting [3]) is below 0.1 µM. For the same molecule, in data set [2] (setting [5]), the EC1.5x (concentration giving 1.5-fold Smn protein increase) was below 300 nM. Also, the “maximum fold (Fold) increase” value in data set [2] (setting [4]) is recorded as “***** (fold increase >1.65)”.

Molecule `Cc1cn2cc(-c3cc4ccc(CCCCN5CCNCC5)cc4oc3=O)nc2c(C)n1` [Compound 905, 3-(6,8-dimethylimidazo[1,2-a]pyrazin-2-yl)-7-[4-(piperazin-1-yl)butyl]-2H-chromen-2-one] had a melting point of 187 to 191 °C. Also, the EC (1.5-fold) in data set [1] (setting [3]) was in the range of 1 to 3 µM. For the same molecule, in data set [2] (setting [5]), the EC1.5x (concentration giving 1.5-fold Smn protein increase) lay within 1000 to 3000 nM. Moreover, in data set [2] (setting [4]), the “maximum fold (Fold) increase” value is “**** (fold increase between >1.5 and ≤1.65)”.

With `CN1CCN(c2ccc3cc(-c4cn5cc(F)ccc5n4)c(=O)oc3c2)CC1` [Compound 138, 3-(6-fluoroimidazo[1,2-a]pyridin-2-yl)-7-(4-methylpiperazin-1-yl)-2H-chromen-2-one], the melting point lay within 266 to 269 °C. Also, in data set [1] (setting [3]), the EC (1.5-fold) was 1 to 3 µM. Further, the “maximum fold (Fold) increase” value in data set [2] (setting [4]) was “** (fold increase between >1.2 and ≤1.35)”.

`Cc1ccn2cc(-c3cc4ccc(N5CCNCC5)cc4oc3=O)nc2c1` [Compound 131, 3-(7-methylimidazo[1,2-a]pyridin-2-yl)-7-(piperazin-1-yl)-2H-chromen-2-one] came in with a melting point of 260 to 270 °C. The EC (1.5-fold) in data set [1] (setting [3]) was in the range of 0.3 to 1 µM. In data set [2] (setting [4]), the “maximum fold (Fold) increase” value was “*** (fold increase between >1.35 and ≤1.5)”.
